Measured values taken from article PMC11501026, “L-Arginine and asymmetric dimethylarginine (ADMA) transport across the mouse blood-brain and blood-CSF barriers: Evidence of saturable transport at both interfaces and CNS to blood efflux” (PLOS ONE, 2024).
“And” between values parts separate entries of the source, which are not always exact repeats. Equal values may be shown once. Where a name gives a salt, the structure may show the parent alone. Read-outs that look alike come from different tables or passages of the source.

Experiments:
[1] = tested on: [^3H]-arginine transport across the blood-brain and blood-CSF barriers; experiment: cross-inhibition, in situ perfusion: [^3H]-arginine with 0.5–500 μM unlabelled ADMA; type: in vivo, mouse
Procedure: (§1) Self-inhibition experiments were also performed. […] Cross-competition experiments were also performed.
(§2) The percentage change in the RTissue uptake values achieved in the absence or presence of an unlabelled inhibitor can be calculated by means of Eq 4.
(§3) %change=RTissue−RInhibition/RTissue×100 Eq 4
(§4) We define RInhibition as the RTissue uptake in the presence of an inhibitor in the artificial plasma.
(§5) A decrease in the uptake of radiolabelled solute in the presence of unlabelled inhibitor is indicative of a saturable influx transport system. Conversely, an increase in the uptake of radiolabelled solute in the presence of unlabelled inhibitor is indicative of a saturable efflux transport system.
Concentrations of ADMA were specifically selected to mimic plasma concentrations under normal conditions (0.5 μM), pathophysiological conditions (3.0 μM), and then supraphysiological concentrations (10, 100 and 500 μM).

[2] = biological target: eNOS; details: read-out: inhibition constant (Ki); cited from earlier work
[3] = tested on: human dermal microvascular endothelial cells; details: cited from earlier work
[4] = tested on: [^3H]-ADMA transport across the blood-brain and blood-CSF barriers; experiment: self-inhibition, in situ perfusion: [^3H]-ADMA with 100 μM unlabelled ADMA; type: in vivo, mouse; details: 100 μM unlabelled ADMA; CSF; 10 minutes; not statistically significant, n of 2
Procedure: as §1, §2, §3, §4, §5

[5] = as above; type: in vivo, mouse; details: male, BALB/c, mouse, other: in situ brain perfusion, with unlabelled ADMA 100 µM, 10 mins, Balb/c ♂, 5ml/min
Procedure: as §1, §2, §3, §4, §5

[6] = pH 7.4
Procedure: The lipophilicity of the radiolabelled test molecules was also measured by means of an octanol:saline partition coefficient. […] Centrifugation separated the hydrophobic (octanol) phase and hydrophilic (saline) phase and 100 μL samples in triplicate were taken for radioactive liquid scintillation counting on a Tricarb 2900TR liquid scintillation counter (Perkin-Elmer; Boston, MA, USA). The partition coefficient was calculated as the ratio of radioactivity in the octanol phase to the radioactivity in the aqueous phase.

[7] = capillary depletion analysis after in situ brain perfusion; type: in vivo, mouse; design: [3H] ADMA and [14C] Sucrose uptake, homogenate / Difference (ADMA minus Sucrose), homogenate / [3H] ADMA and [14C] Sucrose uptake, supernatant / Difference (ADMA minus Sucrose), supernatant / uptake, homogenate / uptake, supernatant: unit not given here; details: Balb/c ♂, 5ml/min
Procedure: The microvasculature within a sample of brain tissue can be separated from the brain parenchyma using capillary depletion analysis. Following perfusion, the remaining brain tissue after microdissection of the regions described above (typically 200–300 mg) underwent capillary depletion following a method modified for mouse. […]

Kp at 10 min, 62.5 nM ([5]; caudate nucleus, Difference (ADMA minus Sucrose), caudate nucleus, + 100uM un-labelled ADMA, mean): 0.0707
Kp at 10 min, 62.5 nM ([5]; caudate nucleus, [3H] ADMA + [14C] Sucrose + 100uM un-labelled ADMA, mean, read-out: uptake into caudate nucleus): 0.102
Kp at 10 min, 62.5 nM ([5]; choroid plexus, Difference (ADMA minus Sucrose), choroid plexus, + 100uM un-labelled ADMA, individual mice): 0.47
Kp at 10 min, 62.5 nM ([5]; choroid plexus, Difference (ADMA minus Sucrose), choroid plexus, + 100uM un-labelled ADMA, mean): 0.458
Kp at 10 min, 62.5 nM ([5]; choroid plexus, [3H] ADMA + [14C] Sucrose + 100uM un-labelled ADMA, individual mice, read-out: uptake into choroid plexus): 0.617
Kp at 10 min, 62.5 nM ([5]; choroid plexus, [3H] ADMA + [14C] Sucrose + 100uM un-labelled ADMA, mean, read-out: uptake into choroid plexus): 0.627
Kp at 10 min, 62.5 nM ([5]; frontal cortex, Difference (ADMA minus Sucrose), frontal cortex, + 100uM un-labelled ADMA, mean): 0.0696
Kp at 10 min, 62.5 nM ([5]; frontal cortex, [3H] ADMA + [14C] Sucrose + 100uM un-labelled ADMA, mean, read-out: uptake into frontal cortex): 0.101
Kp at 10 min, 62.5 nM ([5]; hippocampus, Difference (ADMA minus Sucrose), hippocampus, + 100uM un-labelled ADMA, mean): 0.056
Kp at 10 min, 62.5 nM ([5]; hippocampus, [3H] ADMA + [14C] Sucrose + 100uM un-labelled ADMA, mean, read-out: uptake into hippocampus): 0.0817
Kp at 10 min, 62.5 nM ([5]; occipital cortex, Difference (ADMA minus Sucrose), occipital cortex, + 100uM un-labelled ADMA, individual mice): 0.0613
Kp at 10 min, 62.5 nM ([5]; occipital cortex, Difference (ADMA minus Sucrose), occipital cortex, + 100uM un-labelled ADMA, mean): 0.0767
Kp at 10 min, 62.5 nM ([5]; occipital cortex, [3H] ADMA + [14C] Sucrose + 100uM un-labelled ADMA, individual mice, read-out: uptake into occipital cortex): 0.0898
Kp at 10 min, 62.5 nM ([5]; occipital cortex, [3H] ADMA + [14C] Sucrose + 100uM un-labelled ADMA, mean, read-out: uptake into occipital cortex): 0.107
Kp at 10 min, 62.5 nM ([5]; pineal gland, Difference (ADMA minus Sucrose), pineal gland, + 100uM un-labelled ADMA, mean): 3.33
Kp at 10 min, 62.5 nM ([5]; pineal gland, [3H] ADMA + [14C] Sucrose + 100uM un-labelled ADMA, mean, read-out: uptake into pineal gland): 3.5
octanol-saline partition coefficient [6]: 0.00226±0.00006
Compound: CN(C)C(N)=NCCC[C@H](N)C(=O)O [ADMA, N^G,N^G-dimethylarginine dihydrochloride]
effect on [^3H]-arginine distribution ([1]; 100 μM unlabelled ADMA, any of the samples analysed, 10 minutes): did not inhibit
inhibition of [^3H]-arginine distribution ([1]; 500 μM unlabelled ADMA, choroid plexus, 10 minutes): 72.6%
inhibition of [^3H]-arginine uptake ([1]; 500 μM unlabelled ADMA, each of the brain regions, 10 minutes): approximately 70%
inhibition of [^3H]-arginine distribution ([1]; 500 μM unlabelled ADMA, supernatant (brain parenchyma), 10 minutes): 72.0%
inhibition of [^3H]-arginine distribution ([1]; 500 μM unlabelled ADMA, whole brain homogenate, 10 minutes): 65.1%
effect on transport of [^3H]-arginine ([…]) across the blood-CNS barriers ([1]; 0.5–100 μM unlabelled ADMA): insensitive to inhibition
effect on [^3H]-arginine distribution ([1]; any concentration of unlabelled ADMA (0.5–500 μM), CSF, pineal gland and pituitary gland, 10 minutes): not affected
effect on [^3H]-arginine distribution ([1]; up to 500 μM unlabelled ADMA, cerebral capillary endothelial cells (pellet), 10 minutes): not affected
Ki [2]: 900 nM
effect on [^3H]-arginine transport ([3]; 100 μM unlabelled ADMA): significant inhibitory effect
effect on [^3H]-arginine transport ([3]; 2.5–10 μM ADMA): did not affect
reduction of [^3H]-ADMA uptake [4]: 89.1%
Difference (ADMA minus Sucrose), homogenate ([7]; 2.5 mins, individual mouse): 0.08009 and 0.1215 and 0.06334 and 0.05481 and 0.07702
Difference (ADMA minus Sucrose), pellet ([7]; 2.5 mins, individual mouse): 0.01248 and 0.007546 and 0.01055 and 0.0124
Difference (ADMA minus Sucrose), supernatant ([7]; 2.5 mins, individual mouse): 0.05051 and 0.03514 and 0.04142 and 0.05329
[3H] ADMA and [14C] Sucrose uptake, homogenate ([7]; 2.5 mins, individual mouse): 0.09289 and 0.1482 and 0.07368 and 0.06461 and 0.09146
[3H] ADMA and [14C] Sucrose uptake, pellet ([7]; 2.5 mins, individual mouse): 0.01492 and 0.009191 and 0.01385 and 0.01522
[3H] ADMA and [14C] Sucrose uptake, supernatant ([7]; 2.5 mins, individual mouse): 0.06123 and 0.0402 and 0.05083 and 0.0645
Difference (ADMA minus Sucrose), homogenate ([7]; 20 mins, individual mouse): 0.2153 and 0.186 and 0.3039 and 0.2292 and 0.1075
Difference (ADMA minus Sucrose), pellet ([7]; 20 mins, individual mouse): 0.01581 and 0.02784 and 0.03159 and 0.04237 and 0.006518
Difference (ADMA minus Sucrose), supernatant ([7]; 20 mins, individual mouse): 0.1074 and 0.1722 and 0.2036 and 0.1573 and 0.05863
[3H] ADMA and [14C] Sucrose uptake, homogenate ([7]; 20 mins, individual mouse): 0.2383 and 0.2004 and 0.3388 and 0.2498 and 0.142
[3H] ADMA and [14C] Sucrose uptake, pellet ([7]; 20 mins, individual mouse): 0.01706 and 0.03 and 0.03434 and 0.04519 and 0.01122
[3H] ADMA and [14C] Sucrose uptake, supernatant ([7]; 20 mins, individual mouse): 0.1162 and 0.1882 and 0.2293 and 0.1698 and 0.07807
Difference (ADMA minus Sucrose), homogenate ([7]; 30 mins, individual mice): 0.07039 and 0.3122 and 0.07479 and 0.04539 and 0.1073
Difference (ADMA minus Sucrose), pellet ([7]; 30 mins, individual mice): 0.01163 and 0.01136 and 0.007805 and 0.01411
